Laboratory results published in article PMC7855844 (Bioorganic & medicinal chemistry, 2020).
Values belong to the molecule of their own block, whether it stands above or below them.

Legend:
Mcl-1 protein = Mcl-1 protein (Homo sapiens, UniProt Q07820); experiment: Fluorescence polarization-based binding; conditions: for decrease in Mcl-1 inhibitory activity: compared with coumarin 33
A549 cells = experiment: Cytotoxicity assay by SRB method; conditions: taxol in combination with Cpd 4 vs taxol alone

Chain of Mcl-1 protein (Q07820 whole entry): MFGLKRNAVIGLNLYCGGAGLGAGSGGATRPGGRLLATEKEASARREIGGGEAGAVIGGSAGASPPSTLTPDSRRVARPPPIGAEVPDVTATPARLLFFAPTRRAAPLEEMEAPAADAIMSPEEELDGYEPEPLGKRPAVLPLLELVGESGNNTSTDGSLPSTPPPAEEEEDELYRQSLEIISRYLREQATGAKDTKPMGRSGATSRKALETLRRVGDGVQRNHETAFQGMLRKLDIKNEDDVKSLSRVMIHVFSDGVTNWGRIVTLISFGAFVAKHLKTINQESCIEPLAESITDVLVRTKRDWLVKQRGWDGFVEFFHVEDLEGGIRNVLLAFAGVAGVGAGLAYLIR

Molecule: Cc1cc(=O)oc2c(CN3CCC(O)CC3)c(O)c(O)cc12 [Cpd 15, 6,7-dihydroxy-8-((4-hydroxypiperidin-1-yl)methyl)-4-methyl-2H-chromen-2-one]
decrease of Mcl-1 inhibitory activity (Mcl-1 protein; compared with parent 1): more than 7 fold

Molecule: O=c1ccc2cc(O)ccc2o1 [Cpd 34, 6-hydroxycoumarin]
decrease in Mcl-1 inhibitory activity (Mcl-1 protein): 6 fold

Molecule: CC(=O)O[C@H]1C(=O)[C@@]2(C)[C@H]([C@H](OC(=O)c3ccccc3)[C@]3(O)C[C@H](OC(=O)[C@H](O)[C@@H](NC(=O)c4ccccc4)c4ccccc4)C(C)=C1C3(C)C)[C@]1(OC(C)=O)CO[C@@H]1C[C@@H]2O [taxol]
decrease of IC50 value for the combination compared with taxol alone (A549 cells): more than 10 fold

Next, values leading:

decrease in Mcl-1 inhibitory activity (Mcl-1 protein): little effect
Molecule: O=c1ccc2ccc(O)cc2o1 [Cpd 35, 7-hydroxycoumarin]

Kd (Mcl-1 protein; read-out: Kd for binding to Mcl-1 protein, saturation experiments): 13 nM
Molecule: FAM-Bid: Bid BH3 peptide of 21-residue (residues 79–99) with a 6-carboxy-fluorescein succinimidyl ester fluorescence tag [reference compound]
